Tests used:
Experiment in all cases: Kinase selectivity, scanMAX Kinase assay panel (DiscoverX), % control at 1 uM
Assay type in all cases: binding
[1] = biological target: T1, scanMAX Kinase assay panel (Homo sapiens, UniProt P36897); details: TGFBR1; 1 uM; read-out: Percent Control (%)
T1 construct: purchased DiscoverX
T1 sequence (P36897 34-503): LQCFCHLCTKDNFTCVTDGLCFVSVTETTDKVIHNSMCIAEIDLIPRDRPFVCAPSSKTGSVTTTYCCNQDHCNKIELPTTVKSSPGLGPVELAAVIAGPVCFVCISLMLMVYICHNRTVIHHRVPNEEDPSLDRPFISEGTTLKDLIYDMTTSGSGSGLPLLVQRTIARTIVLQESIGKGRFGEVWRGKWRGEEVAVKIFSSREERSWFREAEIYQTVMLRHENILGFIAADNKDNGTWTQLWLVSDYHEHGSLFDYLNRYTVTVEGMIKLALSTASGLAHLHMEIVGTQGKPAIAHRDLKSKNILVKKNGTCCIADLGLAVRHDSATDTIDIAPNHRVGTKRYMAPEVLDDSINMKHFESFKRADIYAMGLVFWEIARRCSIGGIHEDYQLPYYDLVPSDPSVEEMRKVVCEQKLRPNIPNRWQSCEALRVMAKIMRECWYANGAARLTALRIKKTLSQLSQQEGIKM
Description: (§1) The following experiment was performed to evaluate the inhibitory activity of the compound of the present invention on more enzymes.
(§2) Particularly, among the compounds of the present invention, the compounds of Example 1, Example 12 and Example 78 were selected and assigned to DiscoverX to measure the kinase selectivity. The experiment was performed by using scanMAX™ Kinase assay panel.
(§3) At this time, the concentration of the drug to be treated to the enzyme was adjusted to 1 uM in DMSO, and the control percentage (% control) was determined according to the following Equation 1. [Example Compound−Positive Control/Negative Control−Positive Control]×100 [Equation 1]
(§4) The enzyme selectivity of the compound of the present invention was judged to be active for the enzyme if the % control was <35 (i.e. less than 35%) for each enzyme.

[2] = biological target: T2, scanMAX Kinase assay panel (Homo sapiens, UniProt P08922); details: ROS1; 1 uM; read-out: Percent Control (%)
T2 construct: purchased DiscoverX
Description: as §1, §2, §3, §4

[3] = biological target: T3, scanMAX Kinase assay panel (Homo sapiens, UniProt Q6P2M8); details: CAMK1B; 1 uM; read-out: Percent Control (%)
T3 construct: purchased DiscoverX
Description: as §1, §2, §3, §4

[4] = biological target: T4, scanMAX Kinase assay panel (Homo sapiens, UniProt P29322); details: EPHA8; 1 uM; read-out: Percent Control (%)
T4 construct: purchased DiscoverX
T4 sequence (P29322 28-1005): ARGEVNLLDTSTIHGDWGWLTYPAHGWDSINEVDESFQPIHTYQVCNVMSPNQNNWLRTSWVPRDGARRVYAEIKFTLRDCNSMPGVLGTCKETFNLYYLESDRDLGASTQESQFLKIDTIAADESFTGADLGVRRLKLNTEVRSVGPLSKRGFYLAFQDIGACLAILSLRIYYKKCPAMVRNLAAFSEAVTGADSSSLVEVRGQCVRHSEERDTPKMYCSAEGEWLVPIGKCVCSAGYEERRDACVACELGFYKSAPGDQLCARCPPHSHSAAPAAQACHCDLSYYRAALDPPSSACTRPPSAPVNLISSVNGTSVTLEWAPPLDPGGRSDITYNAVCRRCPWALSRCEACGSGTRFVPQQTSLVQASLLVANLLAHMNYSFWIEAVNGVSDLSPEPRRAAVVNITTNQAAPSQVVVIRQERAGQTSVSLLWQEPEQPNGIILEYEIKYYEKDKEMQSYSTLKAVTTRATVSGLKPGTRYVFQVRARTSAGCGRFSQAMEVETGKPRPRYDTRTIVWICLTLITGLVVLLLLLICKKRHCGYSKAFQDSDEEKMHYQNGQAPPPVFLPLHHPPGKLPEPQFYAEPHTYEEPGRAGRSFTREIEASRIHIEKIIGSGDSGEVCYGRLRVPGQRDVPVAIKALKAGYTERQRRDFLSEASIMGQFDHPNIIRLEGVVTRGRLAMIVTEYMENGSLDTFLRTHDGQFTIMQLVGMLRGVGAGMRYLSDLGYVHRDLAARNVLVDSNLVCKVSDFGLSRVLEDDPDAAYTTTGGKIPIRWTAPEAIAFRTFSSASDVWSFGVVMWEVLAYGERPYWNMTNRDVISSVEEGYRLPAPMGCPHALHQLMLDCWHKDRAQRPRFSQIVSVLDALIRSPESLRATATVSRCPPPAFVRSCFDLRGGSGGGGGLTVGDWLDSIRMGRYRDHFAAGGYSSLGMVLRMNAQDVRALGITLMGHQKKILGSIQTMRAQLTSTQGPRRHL
Description: as §1, §2, §3, §4

[5] = biological target: T5, scanMAX Kinase assay panel (Homo sapiens, UniProt Q8TBX8); details: PIP5K2C; 1 uM; read-out: Percent Control (%)
T5 construct: purchased DiscoverX
T5 sequence (Q8TBX8 1-421): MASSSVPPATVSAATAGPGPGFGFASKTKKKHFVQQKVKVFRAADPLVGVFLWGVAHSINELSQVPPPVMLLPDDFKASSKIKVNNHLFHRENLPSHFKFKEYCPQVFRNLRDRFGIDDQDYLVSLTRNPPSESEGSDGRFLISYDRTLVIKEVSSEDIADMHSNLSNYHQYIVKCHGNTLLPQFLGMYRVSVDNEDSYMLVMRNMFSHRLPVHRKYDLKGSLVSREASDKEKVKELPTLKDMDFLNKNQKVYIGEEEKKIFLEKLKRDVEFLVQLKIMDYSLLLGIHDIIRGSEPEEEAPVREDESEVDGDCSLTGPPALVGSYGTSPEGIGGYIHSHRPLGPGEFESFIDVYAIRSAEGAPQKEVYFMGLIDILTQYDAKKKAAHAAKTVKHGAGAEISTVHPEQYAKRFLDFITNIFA
Description: as §1, §2, §3, §4

[6] = biological target: T6, scanMAX Kinase assay panel (Homo sapiens, UniProt O94921); details: PFTK1; 1 uM; read-out: Percent Control (%)
T6 construct: purchased DiscoverX
Description: as §1, §2, §3, §4

[7] = biological target: T7, scanMAX Kinase assay panel (Homo sapiens, UniProt P07949, M918T); details: RET (M918T); 1 uM; read-out: Percent Control (%)
T7 construct: purchased DiscoverX
Description: as §1, §2, §3, §4

[8] = biological target: T8, scanMAX Kinase assay panel (Homo sapiens, UniProt P30291); details: WEE1; 1 uM; read-out: Percent Control (%)
T8 construct: purchased DiscoverX
Description: as §1, §2, §3, §4

T7 sequence (P07949 29-1114 M918T): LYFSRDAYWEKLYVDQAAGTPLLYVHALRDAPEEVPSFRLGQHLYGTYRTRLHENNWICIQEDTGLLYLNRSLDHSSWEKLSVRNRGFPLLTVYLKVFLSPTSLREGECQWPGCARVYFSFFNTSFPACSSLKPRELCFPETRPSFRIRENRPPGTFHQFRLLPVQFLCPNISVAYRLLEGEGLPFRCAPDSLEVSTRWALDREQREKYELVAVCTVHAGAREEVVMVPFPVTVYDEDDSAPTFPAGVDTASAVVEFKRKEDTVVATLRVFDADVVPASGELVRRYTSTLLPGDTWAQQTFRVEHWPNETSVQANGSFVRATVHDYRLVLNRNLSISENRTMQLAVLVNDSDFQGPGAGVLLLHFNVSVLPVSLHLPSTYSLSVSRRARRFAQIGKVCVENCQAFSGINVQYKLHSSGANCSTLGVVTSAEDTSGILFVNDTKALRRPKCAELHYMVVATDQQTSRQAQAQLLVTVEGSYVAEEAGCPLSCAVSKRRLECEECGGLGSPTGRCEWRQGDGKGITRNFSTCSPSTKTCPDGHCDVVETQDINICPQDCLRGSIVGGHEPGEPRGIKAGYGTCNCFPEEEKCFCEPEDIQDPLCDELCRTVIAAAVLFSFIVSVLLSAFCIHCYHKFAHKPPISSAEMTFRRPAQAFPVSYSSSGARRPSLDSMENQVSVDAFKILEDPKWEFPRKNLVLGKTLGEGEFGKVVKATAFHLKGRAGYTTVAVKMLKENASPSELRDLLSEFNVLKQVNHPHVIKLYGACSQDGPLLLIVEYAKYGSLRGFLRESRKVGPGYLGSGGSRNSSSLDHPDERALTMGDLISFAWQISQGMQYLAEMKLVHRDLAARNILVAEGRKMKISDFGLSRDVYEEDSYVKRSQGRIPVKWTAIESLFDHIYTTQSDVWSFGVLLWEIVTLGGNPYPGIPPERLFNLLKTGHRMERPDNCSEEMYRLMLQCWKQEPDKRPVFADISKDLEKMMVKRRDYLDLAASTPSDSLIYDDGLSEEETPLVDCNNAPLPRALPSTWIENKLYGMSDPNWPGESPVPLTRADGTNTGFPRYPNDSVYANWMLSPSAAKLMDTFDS
T6 sequence (O94921 whole entry): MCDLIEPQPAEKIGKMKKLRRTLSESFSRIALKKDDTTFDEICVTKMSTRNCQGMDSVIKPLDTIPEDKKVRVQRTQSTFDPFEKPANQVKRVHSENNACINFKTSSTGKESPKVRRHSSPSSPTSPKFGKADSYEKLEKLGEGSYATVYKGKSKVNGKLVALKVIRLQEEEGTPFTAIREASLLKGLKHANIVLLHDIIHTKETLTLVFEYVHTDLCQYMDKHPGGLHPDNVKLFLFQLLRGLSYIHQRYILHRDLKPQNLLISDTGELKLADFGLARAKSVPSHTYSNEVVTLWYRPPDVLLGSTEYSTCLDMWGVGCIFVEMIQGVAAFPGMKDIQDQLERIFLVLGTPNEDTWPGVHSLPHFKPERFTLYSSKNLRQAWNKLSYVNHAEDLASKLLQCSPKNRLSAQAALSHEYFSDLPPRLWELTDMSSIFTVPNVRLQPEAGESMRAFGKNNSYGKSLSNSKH
T3 sequence (Q6P2M8 whole entry): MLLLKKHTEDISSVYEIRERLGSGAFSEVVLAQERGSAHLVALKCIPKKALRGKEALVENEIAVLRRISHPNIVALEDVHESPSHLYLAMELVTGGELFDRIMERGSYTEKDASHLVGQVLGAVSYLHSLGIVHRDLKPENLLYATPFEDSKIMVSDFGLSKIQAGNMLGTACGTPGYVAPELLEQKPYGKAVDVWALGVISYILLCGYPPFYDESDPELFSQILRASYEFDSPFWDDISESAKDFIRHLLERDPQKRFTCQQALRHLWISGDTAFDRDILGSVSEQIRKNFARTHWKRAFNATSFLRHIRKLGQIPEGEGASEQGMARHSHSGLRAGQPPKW
T8 sequence (P30291 whole entry): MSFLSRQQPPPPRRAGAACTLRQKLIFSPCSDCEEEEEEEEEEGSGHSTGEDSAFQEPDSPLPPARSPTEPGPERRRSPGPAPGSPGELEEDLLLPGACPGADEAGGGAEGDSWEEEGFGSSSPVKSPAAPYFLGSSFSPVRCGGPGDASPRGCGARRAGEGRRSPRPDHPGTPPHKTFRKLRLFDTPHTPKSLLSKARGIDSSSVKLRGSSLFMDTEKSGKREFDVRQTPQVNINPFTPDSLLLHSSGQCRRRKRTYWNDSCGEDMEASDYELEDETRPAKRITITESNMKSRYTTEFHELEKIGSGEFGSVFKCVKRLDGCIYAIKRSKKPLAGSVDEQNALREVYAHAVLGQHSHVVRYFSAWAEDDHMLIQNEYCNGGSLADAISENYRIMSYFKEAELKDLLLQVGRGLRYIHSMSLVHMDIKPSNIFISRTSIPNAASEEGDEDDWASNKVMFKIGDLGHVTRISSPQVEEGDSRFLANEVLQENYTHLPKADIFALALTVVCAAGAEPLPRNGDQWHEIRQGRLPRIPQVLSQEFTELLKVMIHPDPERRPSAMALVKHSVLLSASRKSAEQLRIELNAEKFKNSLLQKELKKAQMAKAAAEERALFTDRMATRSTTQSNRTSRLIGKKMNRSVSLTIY
T2 sequence (P08922 28-2347): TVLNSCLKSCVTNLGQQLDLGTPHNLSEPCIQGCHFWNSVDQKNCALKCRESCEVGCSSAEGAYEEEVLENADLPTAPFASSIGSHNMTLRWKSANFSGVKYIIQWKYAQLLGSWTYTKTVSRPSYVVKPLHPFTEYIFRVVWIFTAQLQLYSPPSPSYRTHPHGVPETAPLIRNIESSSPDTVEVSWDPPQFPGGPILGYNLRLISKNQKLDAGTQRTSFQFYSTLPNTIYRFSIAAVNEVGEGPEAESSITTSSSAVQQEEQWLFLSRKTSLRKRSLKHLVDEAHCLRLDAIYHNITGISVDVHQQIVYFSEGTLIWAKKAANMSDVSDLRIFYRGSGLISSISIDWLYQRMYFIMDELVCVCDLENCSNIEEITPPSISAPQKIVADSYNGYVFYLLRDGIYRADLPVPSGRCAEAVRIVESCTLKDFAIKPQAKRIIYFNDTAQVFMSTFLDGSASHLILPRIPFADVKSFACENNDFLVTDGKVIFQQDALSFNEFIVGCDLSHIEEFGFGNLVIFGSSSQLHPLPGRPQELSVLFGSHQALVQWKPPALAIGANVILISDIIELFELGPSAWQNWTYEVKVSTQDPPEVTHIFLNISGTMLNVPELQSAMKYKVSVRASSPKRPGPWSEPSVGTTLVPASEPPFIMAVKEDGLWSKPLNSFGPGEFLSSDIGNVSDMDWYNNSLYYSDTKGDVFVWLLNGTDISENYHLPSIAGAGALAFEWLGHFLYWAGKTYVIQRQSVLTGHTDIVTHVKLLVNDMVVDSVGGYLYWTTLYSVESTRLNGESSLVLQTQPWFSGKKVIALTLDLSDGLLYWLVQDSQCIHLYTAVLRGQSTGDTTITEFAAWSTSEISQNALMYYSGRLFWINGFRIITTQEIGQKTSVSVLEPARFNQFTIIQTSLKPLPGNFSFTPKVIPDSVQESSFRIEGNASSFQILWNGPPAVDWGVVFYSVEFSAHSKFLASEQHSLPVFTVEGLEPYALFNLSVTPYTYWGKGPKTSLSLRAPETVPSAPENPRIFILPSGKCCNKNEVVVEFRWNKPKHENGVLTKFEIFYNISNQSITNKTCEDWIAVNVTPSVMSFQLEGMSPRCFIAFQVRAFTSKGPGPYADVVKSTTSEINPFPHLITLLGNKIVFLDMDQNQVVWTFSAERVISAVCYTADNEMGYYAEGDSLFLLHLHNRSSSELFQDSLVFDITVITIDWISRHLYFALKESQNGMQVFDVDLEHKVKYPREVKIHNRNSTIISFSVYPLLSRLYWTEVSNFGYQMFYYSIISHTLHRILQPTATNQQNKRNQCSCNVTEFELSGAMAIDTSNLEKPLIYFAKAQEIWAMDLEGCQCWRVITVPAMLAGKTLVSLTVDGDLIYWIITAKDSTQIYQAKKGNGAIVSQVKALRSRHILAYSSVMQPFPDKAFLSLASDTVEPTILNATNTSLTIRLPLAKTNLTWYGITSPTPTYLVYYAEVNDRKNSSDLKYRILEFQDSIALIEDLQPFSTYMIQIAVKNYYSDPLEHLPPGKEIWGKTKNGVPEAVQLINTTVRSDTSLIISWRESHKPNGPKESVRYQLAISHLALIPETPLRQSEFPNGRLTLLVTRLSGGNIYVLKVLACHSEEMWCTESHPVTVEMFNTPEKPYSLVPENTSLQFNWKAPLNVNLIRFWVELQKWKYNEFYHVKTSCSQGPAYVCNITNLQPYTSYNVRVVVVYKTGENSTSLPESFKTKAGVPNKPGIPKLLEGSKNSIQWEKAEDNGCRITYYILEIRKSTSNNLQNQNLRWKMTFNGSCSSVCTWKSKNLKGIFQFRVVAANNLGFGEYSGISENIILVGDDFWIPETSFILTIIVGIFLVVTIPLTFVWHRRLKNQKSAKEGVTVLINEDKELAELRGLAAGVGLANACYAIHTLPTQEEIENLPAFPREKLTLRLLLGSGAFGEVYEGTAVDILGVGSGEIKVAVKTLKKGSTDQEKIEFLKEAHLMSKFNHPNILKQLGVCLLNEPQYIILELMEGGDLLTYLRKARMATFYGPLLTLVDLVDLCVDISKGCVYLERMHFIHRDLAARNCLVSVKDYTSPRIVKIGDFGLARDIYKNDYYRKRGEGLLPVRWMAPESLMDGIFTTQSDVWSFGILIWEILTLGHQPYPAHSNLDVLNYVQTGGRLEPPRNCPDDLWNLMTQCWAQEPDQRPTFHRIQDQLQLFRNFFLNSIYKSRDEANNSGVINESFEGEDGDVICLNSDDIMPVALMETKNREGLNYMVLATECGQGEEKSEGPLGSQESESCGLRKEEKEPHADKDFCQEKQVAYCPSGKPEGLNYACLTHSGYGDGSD

Structure (SMILES)	remaining binding at 1 µM [1]	remaining binding at 1 µM [2]	remaining binding at 1 µM [3]	remaining binding at 1 µM [4]	remaining binding at 1 µM [5]	remaining binding at 1 µM [6]	remaining binding at 1 µM [7]	remaining binding at 1 µM [8]
Cc1ccc(C(=O)Nc2ccc(CN3CCN(C)CC3)c(C(F)(F)F)c2)cc1C#Cc1cnc2c(Nc3cnn(C)c3)cccn12 [Example 1, 4-methyl-3-((8-((1-methyl-1H-pyrazol-4-yl)amino)imidazo[1,2-a]pyridin-3-yl)ethynyl)-N-(4-((4-methylpiperazin-1-yl)methyl)-3-(trifluoromethyl)phenyl)benzamide]	85%	39%	62%	0%	97%	11%	0%	92%
Cc1cn(-c2cc(NC(=O)c3ccc(C)c(C#Cc4cnc5c(Nc6cnn(C)c6)cccn45)c3)cc(C(F)(F)F)c2)cn1 [Example 12, 4-methyl-N-(3-(4-methyl-1H-imidazol-1-yl)-5-(trifluoromethyl)phenyl)-3-((8-((1-methyl-1H-pyrazol-4-yl)amino)imidazo[1,2-a]pyridin-3-yl)ethynyl)benzamide]	85%	51%	100%	1%	73%	87%	0%	90%
Cc1ccc(NC(=O)C2(C(=O)Nc3ccc(F)cc3)CC2)cc1C#Cc1cnc2c(Nc3cnn(C(C)C)c3)cccn12 [Example 78]	100%	92%	100%	46%	95%	100%	100%	100%
